Results published in patent publication US9040566B2, “Adenosine A1 agonists for the treatment of glaucoma and ocular hypertension” (Bayer Intellectual Property GmbH, priority 2010, dated 2015).

Assays:
rabbits = conditions: literature (Crosson); cited from earlier work
cynomolgus monkeys = conditions: literature (Kaufman et al.); cited from earlier work
Wistar rats = assay: IOP measurements in rats (anesthetized, topical administration to the eye); format: in vivo; conditions: rat, 10 mg/ml, 10 μl
Experimental: B-1. IOP Measurements in Rats
Wistar rats with a body weight of about 300 g were anesthetized with isoflurane (2-3% in O2:N2O=1:2). The compounds were dissolved/suspended in an aqueous solution of sodium chloride (0.9%) and administered topically to the eye in 10 μl volume at a concentration of 10 mg/ml. IOP was measured with a rebound tonometer (TonoLab) at different time points after application of the compounds. Ocular pressure and effects of hemodynamic parameters can be monitored in this model. N^6-Cyclopentyl-Adenosine (CPA) is a known adenosine A1 agonist having the structure shown below: […]

Normotensive wistar rats = assay: Blood pressure measurement in telemetric rats (conscious, topical administration to the eye); format: in vivo; conditions: conscious rat, 10 mg/ml
Description: B-2. Blood Pressure Measurement in Telemetric Rats
Normotensive wistar rats with a body weight of 300 to 350 g were used for this experimental study. Blood pressure was monitored in freely moving conscious animals by radiotelemetry. Briefly, the telemetric system (DSI Data Science International, MN, USA) is composed on 3 basic elements: implantable transmitters (TA11PA-C40), receivers (RA1010) and a computer-based acquisition software (Dataquest A.R.T 2.1 for Windows). Rats were instrumented with pressure implants for chronic use at least 14 days prior the experiments. Rats were anesthetized with isoflurane (2-3% in O2:N2O=1:2). During catheter implantation under anesthesia, rats were kept on a heating mat. A fluid-filled sensor catheter was inserted upstream into the exposed descending aorta between the iliac bifurcation and the renal arteries. According to the DSI guidelines the tip of the telemetric catheter was located just caudal to the renal arteries and secured by tissue adhesive. The transmitter body was affixed to the inner peritoneal wall before closure of abdomen. In a hardware configuration equipped for 24 animals, each rat cage was positioned on top of an individual receiver platform. After activation of the implanted transmitters, A.R.T., an on-line data acqusition system, samples data and converts telemetric pressure signals into mm Hg. The compounds were dissolved/suspended in an aqueous solution of sodium chloride (0.9%) and administered topically to the eye in 10 μl volume at a concentration of 10 mg/ml. Given are % deviations from the control run-in period of 2 hours before substance administration.

[1] = tested on: Female New Zealand rabbits; assay: IOP measurements in conscious rabbits; format: in vivo; conditions: conscious rabbit, topical, 30 μl
Experimental: B-5. IOP Measurements in Conscious Rabbits
Female New Zealand rabbits with a body weight of about 4-5 kg were used to measure inner eye pressure (IOP). The compounds were dissolved/suspended in a solution of 10% transcutol, 10% solutol and 80% PBS, and given by topical administration at the eye in 30 μl volume. IOP was measured with a rebound tonometer (TonoVet) at different time points after application of the drugs. INO-8875 is a known adenosine A1 agonist having the structure shown below: […]

New Zealand rabbits = assay: Assessment of blood pressure in telemetric rabbits; format: in vivo; conditions: conscious rabbit, topical, 30 μl
Experimental: B-6. Assessment of Blood Pressure and Heart Rate in Telemetric Rabbits Implantation of Telemetric Senders in Female New Zealand Rabbits:
New Zealand rabbits were used for implantation of the telemetric senders. Rabbits were pre-anaesthetized with Rompun® and Ketavet® i.m. at a dose of 5 mg/kg (in 0.25 ml/kg)+40 mg/kg (in 0.40 ml/kg) respectively. Anaesthesia was maintained with an i.v. infusion of Rompun® and Ketavet® (5-15 ml/h) with a solution of Rompun 2 ml (20 mg/1 ml)+Ketavet 4 ml (100 mg/ml) and 60 ml 0.9% aqueous solution of sodium chloride. Before surgery the hairs at the inner side of the back leg were completely removed and the skin were treated with local anaesthetic Xylocaln® Spray and disinfected with Braunol®. The rabbits were transferred to a sterile surgery unit and covered with sterile swabs and compressions. The skin was opened and the arteria femoralis was carefully dissected free and the pressure catheter of the telemetric implant C50 PXT® (DSI/Data Science International, St. Paul, Minn., U.S.A.) was inserted in the […] and forwarded abdominally under control of the pressure signal. The signal was detected with the RMC1-DSI® receiver plates and visualized with the PONEMAH® physiology platform software DSI/Data Science International, St. Paul, Minn., U.S.A.). After detection of a stable blood pressure signal the catheter was fixed with tissue-glue “Gewebepad” (DSI) and the two ECG electrodes were cut close to the transmitter. The transmitter was fixed under the skin of the rabbit. The wound was closed and finally treated with Nebacetin® Powder Spray. Post-operative analgesia was done with Metamizol i.m. 50 mg/kg in 0.1 ml/kg for 5 days after surgery. In addition a 5 day antibiotic therapy with Terramycin®/LA 20 mg/kg with 0.1 ml/kg was applied i.m. All rabbits recovered fully within one week of the surgery and were after 2 weeks adjustment to the measurement procedure used for the blood pressure detection.
Registration of MAP and HR in Conscious Female New Zealand Rabbits:
The rabbits with telemetric implants were housed for 5 hours in a transportation box which was placed on the RMC1-DSI® receiver plates. The signals were visualized, compiled and analyzed with the PONEMAH® physiology platform software. The systolic (SAP), diastolic (DAP) and mean arterial blood pressure (MAP) levels were registered in mmHg and the heart rate (HR) in beat/minutes was calculated from the interval between the systoles. Baseline levels for SAP, DAP and MAP as for HR were registered over a 2 hour equilibration period. The compounds were dissolved/suspended in a solution of 10% transcutol, 10% solutol and 80% PBS, and given by topical administration at the eye in 30 μl volume. Controls received the corresponding solvents. Baseline levels for SAP, DAP and MAP as for HR were registered over a 3 hour period after application.

Structure (SMILES): OC[C@H]1O[C@@H](n2cnc3c(NC4CCCCC4)ncnc32)[C@H](O)[C@@H]1O [CHA, N6-cyclohexyl-adenosine]
- effect on intraocular pressure (rabbits): lower intraocular pressure
- effect on intraocular pressure (cynomolgus monkeys): lower intraocular pressure

Structure (SMILES): OC[C@H]1O[C@@H](n2cnc3c(NC4CCCC4)ncnc32)[C@H](O)[C@@H]1O [CPA, N^6-Cyclopentyl-Adenosine]
- IOP as percent of zero value (Wistar rats; time 0 min): 100.0%
- IOP as percent of zero value (Wistar rats; time 15 min): 65.0%
- IOP as percent of zero value (Wistar rats; time 30 min): 58.5%
- IOP as percent of zero value (Wistar rats; time 45 min): 46.3%
- IOP as percent of zero value (Wistar rats; time 60 min): 42.5%
- IOP as percent of zero value (Wistar rats; time 90 min): 44.8%
- IOP as percent of zero value (Wistar rats; time 120 min): 59.0%
- mean arterial pressure (MAP) as percent change of zero value (Normotensive wistar rats; time 0.25 h): −25.4%
- mean arterial pressure (MAP) as percent change of zero value (Normotensive wistar rats; time 0.75 h): −71.3%
- mean arterial pressure (MAP) as percent change of zero value (Normotensive wistar rats; time 1.25 h): −58.9%
- mean arterial pressure (MAP) as percent change of zero value (Normotensive wistar rats; time 1.75 h): −42.6%
- mean arterial pressure (MAP) as percent change of zero value (Normotensive wistar rats; time 2.25 h): −30.3%
- mean arterial pressure (MAP) as percent change of zero value (Normotensive wistar rats; time 2.75 h): −17.6%
- mean arterial pressure (MAP) as percent change of zero value (Normotensive wistar rats; time 3.25 h): −16.4%
- mean arterial pressure (MAP) as percent change of zero value (Normotensive wistar rats; time 3.75 h): −9.0%
- mean arterial pressure (MAP) as percent change of zero value (Normotensive wistar rats; time 4.25 h): −8.4%
- mean arterial pressure (MAP) as percent change of zero value (Normotensive wistar rats; time 4.75 h): −5.3%
- mean arterial pressure (MAP) as percent change of zero value (Normotensive wistar rats; time 5.25 h): −0.7%
- mean arterial pressure (MAP) as percent change of zero value (Normotensive wistar rats; time 5.75 h): −2.9%
- mean arterial pressure (MAP) as percent change of zero value (Normotensive wistar rats; time 6.25 h): −2.7%
- mean arterial pressure (MAP) as percent change of zero value (Normotensive wistar rats; time −0.25 h): 0.0%

Structure (SMILES): O=[N+]([O-])OC[C@H]1O[C@@H](n2cnc3c(NC4CCCC4)ncnc32)[C@H](O)[C@@H]1O [INO-8875]
- IOP as percent of zero value ([1]; 1.0 mg/mL, time 0 min): 100.0%
- IOP as percent of zero value ([1]; 1.0 mg/mL, time 30 min): 85.3%
- IOP as percent of zero value ([1]; 1.0 mg/mL, time 60 min): 86.7%
- IOP as percent of zero value ([1]; 1.0 mg/mL, time 90 min): 93.3%
- IOP as percent of zero value ([1]; 1.0 mg/mL, time 120 min): 100%
- IOP as percent of zero value ([1]; 3.0 mg/mL, time 0 min): 100.0%
- IOP as percent of zero value ([1]; 3.0 mg/mL, time 30 min): 89.3%
- IOP as percent of zero value ([1]; 3.0 mg/mL, time 60 min): 81.3%
- IOP as percent of zero value ([1]; 3.0 mg/mL, time 90 min): 79.0%
- IOP as percent of zero value ([1]; 3.0 mg/mL, time 120 min): 87.3%
- IOP as percent of zero value ([1]; 10.0 mg/mL, time 0 min): 100.0%
- IOP as percent of zero value ([1]; 10.0 mg/mL, time 30 min): 74.0%
- IOP as percent of zero value ([1]; 10.0 mg/mL, time 60 min): 60.0%
- IOP as percent of zero value ([1]; 10.0 mg/mL, time 90 min): 61.3%
- IOP as percent of zero value ([1]; 10.0 mg/mL, time 120 min): 65.0%
- mean arterial pressure (MAP) (New Zealand rabbits; 1.0 mg/mL, time 0 min): 123.9 mm Hg
- mean arterial pressure (MAP) (New Zealand rabbits; 1.0 mg/mL, time 30 min): 111.3 mm Hg
- mean arterial pressure (MAP) (New Zealand rabbits; 1.0 mg/mL, time 60 min): 110.9 mm Hg
- mean arterial pressure (MAP) (New Zealand rabbits; 1.0 mg/mL, time 90 min): 112.6 mm Hg
- mean arterial pressure (MAP) (New Zealand rabbits; 1.0 mg/mL, time 120 min): 106.0 mm Hg
- mean arterial pressure (MAP) (New Zealand rabbits; 3.0 mg/mL, time 0 min): 118.5 mm Hg
- mean arterial pressure (MAP) (New Zealand rabbits; 3.0 mg/mL, time 30 min): 101.8 mm Hg
- mean arterial pressure (MAP) (New Zealand rabbits; 3.0 mg/mL, time 60 min): 104.9 mm Hg
- mean arterial pressure (MAP) (New Zealand rabbits; 3.0 mg/mL, time 90 min): 105.7 mm Hg
- mean arterial pressure (MAP) (New Zealand rabbits; 3.0 mg/mL, time 120 min): 109.0 mm Hg
- mean arterial pressure (MAP) (New Zealand rabbits; 10.0 mg/mL, time 0 min): 114.5 mm Hg
- mean arterial pressure (MAP) (New Zealand rabbits; 10.0 mg/mL, time 30 min): 89.5 mm Hg
- mean arterial pressure (MAP) (New Zealand rabbits; 10.0 mg/mL, time 60 min): 86.9 mm Hg
- mean arterial pressure (MAP) (New Zealand rabbits; 10.0 mg/mL, time 90 min): 90.3 mm Hg
- mean arterial pressure (MAP) (New Zealand rabbits; 10.0 mg/mL, time 120 min): 90.0 mm Hg

Structure (SMILES): C[C@H](Cc1ccccc1)Nc1ncnc2c1ncn2[C@@H]1O[C@H](CO)[C@@H](O)[C@H]1O [R-PIA, R(−)-N6-(2-phenylisopropyl)adenosine]
- effect on intraocular pressure (rabbits): lower intraocular pressure
- effect on intraocular pressure (cynomolgus monkeys): lower intraocular pressure
